Assay results taken from PMC9587990, “Molecular basis for isoform-selective inhibition of presenilin-1 by MRK-560” (Nature Communications, 2022).
Values joined by “and” are separate entries in the source; they are usually repeats but may differ in a detail not shown here. Equal values may be shown once. Read-outs that look alike come from different tables or passages of the source.

Tests used:
[1] = target: T1, PS2-complex (WT PS2-containing γ-secretase) (Homo sapiens, UniProt P49810); experiment: in vitro cleavage assay, Aβ40 production by AlphaLISA; format: biochemical; details: for remaining activity at 0.002 µM / remaining activity at 0.01 µM / remaining activity at 0.04 µM / remaining activity at 0.2 µM / remaining activity at 1 µM / remaining activity at 10 µM: 4 h; for remaining activity at 0.002 µM / remaining activity at 0.01 µM / remaining activity at 0.04 µM / remaining activity at 0.2 µM / remaining activity at 1 µM / remaining activity at 10 µM / Caculated Aβ40 production / raw data from α-Lisa reading: PS2 WT
T1 construct: made in house; host or cells: mammalian cells (HEK293F is stated for the cryo-EM samples)
Description: (§1) The PS1- or PS2 complexes were expressed and purified as described. To validate the inhibitory effect of MRK-560 (Fig. 1a), we reconstituted an in vitro cleavage assay using the purified PS1- or PS2 complexes. Production of Aβ40, which is the major cleavage product among the varying lengths of Aβs, and AICD, whose cleavage reflects the endopeptidase activity of γ-secretase, are measured with AlphaLISA and western blots, respectively. All proteins used for the activity assay were sub-cloned, expressed and purified as described. Protein concentration was determined using the Bradford method. […] The cleavage reaction was conducted at 37 °C for 4 h. The cleaved products of these substrates were detected using a monoclonal antibody (1:1000 dilution, CW0299, CWBio) against the C-terminal Myc tag. Aβ40 production was detected using the AlphaLISA assay (PerkinElmer) as described. The IC50 values and the inhibition curves were calculated using Prism 8.0. Statistical analysis of Aβ40 was performed using Prism 8 (GraphPad Software, San Diego, CA, USA). IC50 were determined by a four-parameter logistic regression. The statistical details can be found in Figs. 1, 4 and legends. Data are expressed as mean ± SD.

[2] = target: T2, PS1-complex (WT PS1-containing γ-secretase) (Homo sapiens, UniProt P49768); experiment: as above; format: biochemical; details: for remaining activity at 0.002 µM / remaining activity at 0.01 µM / remaining activity at 0.04 µM / remaining activity at 0.2 µM / remaining activity at 1 µM / remaining activity at 10 µM: 4 h
T2 construct: made in house; host or cells: mammalian cells (HEK293F is stated for the cryo-EM samples)
Description: as §1

[3] = PS1 WT, MRK-560 2 nM, replicates
[4] = PS1 WT, MRK-560 10 nM, replicates
[5] = PS1 WT, MRK-560 40 nM, replicates
[6] = PS1 WT, MRK-560 200 nM, replicates
[7] = PS1 WT, MRK-560 1 μM, replicates
[8] = PS1 WT, MRK-560 10 μM, replicates

## O=S(=O)(NC1CCC(c2cc(F)ccc2F)(S(=O)(=O)c2ccc(Cl)cc2)CC1)C(F)(F)F (stereo not drawn) [MRK-560, N-[cis-4-[(4-chlorophenyl)sulfonyl]-4-(2,5-difluorophenyl)cyclohexyl]-1,1,1-trifluoromethanesulfonamide]
[1]; MRK-560 2 nM, mean of 3 replicates, read-out: Normalized production (control=1), Mean
  remaining activity at 0.002 µM: 98.5%
[1]; MRK-560 2 nM, replicates, read-out: Normalized production (control=1)
  remaining activity at 0.002 µM: 96.8%
[1]; MRK-560 10 nM, mean of 3 replicates, read-out: Normalized production (control=1), Mean
  remaining activity at 0.01 µM: 93.7%
[1]; MRK-560 10 nM, replicates, read-out: Normalized production (control=1)
  remaining activity at 0.01 µM: 96.7%
[1]; MRK-560 40 nM, mean of 3 replicates, read-out: Normalized production (control=1), Mean
  remaining activity at 0.04 µM: 94.4%
[1]; MRK-560 40 nM, replicates, read-out: Normalized production (control=1)
  remaining activity at 0.04 µM: 92.8%
[1]; MRK-560 200 nM, mean of 3 replicates, read-out: Normalized production (control=1), Mean
  remaining activity at 0.2 µM: 44.1%
[1]; MRK-560 200 nM, replicates, read-out: Normalized production (control=1)
  remaining activity at 0.2 µM: 43.5%
[1]; MRK-560 1 μM, mean of 3 replicates, read-out: Normalized production (control=1), Mean
  remaining activity at 1 µM: 9.52%
[1]; MRK-560 1 μM, replicates, read-out: Normalized production (control=1)
  remaining activity at 1 µM: 8.72%
[1]; MRK-560 10 μM, mean of 3 replicates, read-out: Normalized production (control=1), Mean
  remaining activity at 10 µM: 6.39%
[1]; MRK-560 10 μM, replicates, read-out: Normalized production (control=1)
  remaining activity at 10 µM: 6.67%
[1]; PS2-complex WT, mean ± SD, n=3
  IC50: 173 ± 24 nM
[1]; MRK-560 2 nM, replicates
  Caculated Aβ40 production: 178.2729 and 172.6848 and 175.9467
  raw data from α-Lisa reading: 27903 and 28403 and 28759
[1]; MRK-560 10 nM, replicates
  Caculated Aβ40 production: 177.3643 and 172.5675 and 151.3305
  raw data from α-Lisa reading: 27885 and 24607 and 28620
[1]; MRK-560 40 nM, replicates
  Caculated Aβ40 production: 171.4208 and 165.5620 and 168.4662
  raw data from α-Lisa reading: 26808 and 27255 and 27709
[1]; MRK-560 200 nM, replicates
  Caculated Aβ40 production: 82.1115 and 77.5422 and 76.1780
  raw data from α-Lisa reading: 12906 and 12685 and 13645
[1]; MRK-560 1 μM, replicates
  Caculated Aβ40 production: 17.8069 and 15.5539 and 17.5803
  raw data from α-Lisa reading: 2685 and 3025 and 3063
[1]; MRK-560 10 μM, replicates
  Caculated Aβ40 production: 12.9409 and 11.9064 and 9.3762
  raw data from α-Lisa reading: 2072 and 1646 and 2246
[2]; PS1 WT, MRK-560 2 nM, mean of 3 replicates, read-out: Normalized production (control=1), Mean
  remaining activity at 0.002 µM: 101%
[2]; PS1 WT, MRK-560 2 nM, replicates, read-out: Normalized production (control=1)
  remaining activity at 0.002 µM: 102%
[2]; PS1 WT, MRK-560 10 nM, mean of 3 replicates, read-out: Normalized production (control=1), Mean
  remaining activity at 0.01 µM: 92.4%
[2]; PS1 WT, MRK-560 10 nM, replicates, read-out: Normalized production (control=1)
  remaining activity at 0.01 µM: 90.9%
[2]; PS1 WT, MRK-560 40 nM, mean of 3 replicates, read-out: Normalized production (control=1), Mean
  remaining activity at 0.04 µM: 43.2%
[2]; PS1 WT, MRK-560 40 nM, replicates, read-out: Normalized production (control=1)
  remaining activity at 0.04 µM: 43.4%
[2]; PS1 WT, MRK-560 200 nM, mean of 3 replicates, read-out: Normalized production (control=1), Mean
  remaining activity at 0.2 µM: 8.2%
[2]; PS1 WT, MRK-560 200 nM, replicates, read-out: Normalized production (control=1)
  remaining activity at 0.2 µM: 8.25%
[2]; PS1 WT, MRK-560 1 μM, mean of 3 replicates, read-out: Normalized production (control=1), Mean
  remaining activity at 1 µM: 0.63%
[2]; PS1 WT, MRK-560 1 μM, replicates, read-out: Normalized production (control=1)
  remaining activity at 1 µM: 0.63%
[2]; PS1 WT, MRK-560 10 μM, mean of 3 replicates, read-out: Normalized production (control=1), Mean
  remaining activity at 10 µM: 0.52%
[2]; PS1 WT, MRK-560 10 μM, replicates, read-out: Normalized production (control=1)
  remaining activity at 10 µM: 0.46%
[2]; PS1-complex WT, mean ± SD, n=3
  IC50: 33 ± 2 nM
[2]; [3]
  Caculated Aβ40 production: 346.0052 and 350.2238 and 339.9166
  raw data from α-Lisa reading: 53851 and 52412 and 53263
[2]; [4]
  Caculated Aβ40 production: 325.7701 and 311.5896 and 312.3355
  raw data from α-Lisa reading: 48416 and 48522 and 50424
[2]; [5]
  Caculated Aβ40 production: 146.9566 and 148.7756 and 148.6084
  raw data from α-Lisa reading: 24210 and 24184 and 23927
[2]; [6]
  Caculated Aβ40 production: 26.7052 and 28.2767 and 29.2852
  raw data from α-Lisa reading: 4813 and 4981 and 4551
[2]; [7]
  Caculated Aβ40 production: 2.1627 and 2.1745 and 2.1272
  raw data from α-Lisa reading: 430 and 422 and 428
[2]; [8]
  Caculated Aβ40 production: 1.8967 and 1.5777 and 1.8849
  Normalized production (control=1): 0.0055
  raw data from α-Lisa reading: 329 and 381 and 383
